In patent US9469878B2, “Methods of treating cancer comprising targeting NQO1” (The Board of Regents of the University of Texas System, priority 2010, dated 2016):

How the values were obtained:
PARP-1 in PC-3 cells = test: PAR formation (PARP-1 hyperactivation), Western blot; assay type: cell-based, human
Description: Whole-cell extracts were prepared, proteins separated by SDSPAGE, and Western blots developed using SuperSignal® West Pico Chemiluminescent substrate (Thermo Scientific, Rockford, Ill.), and exposed using Autoradiography Film (Denville Scientific Inc., Metuchen, N.J.). Both PAR (BD Pharmingen, San Jose, Calif.) and γH2AX (Upstate, Billerica, Mass.) antibodies were used at 1:2000 and 1:1000 dilutions, respectively. […] or α-tubulin levels were used as loading control.

NQO1 = NQO1 (Homo sapiens, UniProt P15559); test: NQO1 enzyme assays using β-lapachone or the standard menadione substrates; assay type: biochemical; parameters: S9 Supernatants were prepared from cells in mid-log to late log phase growth; endogenous in cells; host or cells: cancer cell lines, mostly from a non-small cell lung cancer panel; S9 supernatants; conditions: β-lapachone as substrate, H1993 *1/*1
Chain of NQO1 (P15559 whole entry): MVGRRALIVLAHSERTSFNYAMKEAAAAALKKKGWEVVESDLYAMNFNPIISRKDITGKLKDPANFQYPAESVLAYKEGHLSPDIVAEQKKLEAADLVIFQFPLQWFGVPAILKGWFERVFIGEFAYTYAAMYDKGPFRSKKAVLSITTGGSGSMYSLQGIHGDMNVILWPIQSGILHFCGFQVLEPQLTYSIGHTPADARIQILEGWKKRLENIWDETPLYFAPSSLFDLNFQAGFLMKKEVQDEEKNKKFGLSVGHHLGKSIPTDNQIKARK
Description: S9 Supernatants were prepared from cells in mid-log to late log phase growth. […] The cell suspensions were sonicated on ice four times, using 10-s pulses, and then centrifuged at 14,000×g for 20 min. The S9 supernatants were aliquoted into microcentrifuge tubes and stored at −80° C. until used. A 1× protease inhibitor cocktail was added to prevent enzyme activity degradation. […] Menadione was used as the electron acceptor. NADH was used as the electron donor.
NQO1 activity was measured using NADH (200 μM) as the immediate electron donor and menadione (10 μM) as the intermediate electron acceptor. […] Biochem. Biophys. […] NADH: cytochrome b5 reductase was measured using NADH (200 μM) as the electron donor, and […] was measured using NADPH (200 μM) as electron donor (45) in a Beckman DU 640 spectrophotometer (Beckman Coulter, Fullerton, Calif.). Reactions were carried out at 37° C. and were initiated by the addition of S9 supernatants. Varying amounts of supernatants, from 10 to 40 μL, were used to ensure linearity of rates with protein concentration. […] Results shown are the average enzyme activity for three separate cell extractions±S.D. or both values from duplicate experiments.
Cell lines, mostly from a 5-panel nonsmall cell lung cancer panel from the UT Southwestern SPORE, were assessed for NQO1 polymorphism status and then monitored for NQO1 enzyme assays using β-lapachone or the standard menadione substrates. […] NQO1*2/*2 and *3/*3 polymorphisms were detected from NQO1 *1/*1 wild-type sequences by PCR-RFLP. Genomic DNA was extracted from the cells using Qiagen spin columns. Using previously described oligonucleotide primers, PCR products underwent gel electrophoresis. Final genotyping was determined based on the size and pattern of separated bands diagnostic for *1/*1 (wild-type), or polymorphic *2/*2 or *3/*3 NQO1 polymorphisms.

PC-3 cells [1] = test: Intracellular NAD+ and ATP levels; assay type: cell-based, human; conditions: β-lap exposure
Description: ATP levels were analyzed from whole-cell extracts using CellTiter-Glo Luminescent Cell Viability Assays (Promega, Madison, Wis.) following the manufacture's instructions. Data were graphed as means±SE from at least three independent experiments in triplicates.

[2] = β-Lap pharmacokinetic (PK) analyses; assay type: in vivo; conditions: athymic nude mice, plasma ng/mL, organs ng/g
Excerpt: FIG. 27 depicts correlative studies of NQO1 expression and β-lap, a bioactivatable drug. (a) NQO1 activity assay (reported as nMoles cyt-c/min/μg protein) in paired tumor (T) and associated normal tissue (N) from human NSCLC patient samples. NQO1 activity was not detectable in normal lung tissue. (b) β-Lap pharmacokinetic (PK) analyses in athymic nude mice. Black circles denote plasma concentrations (ng/mL); other colors denote various organ/tumor concentrations (ng/g). […] (c) NQO1 expression by immunohistochemistry (IHC). Arrowhead denotes NQO1+ prostate cancer cells. Arrow denotes normal prostate gland tissue that have low, or no, detectable NQO1 protein levels.

PC-3 cells [3] = test: Alkaline comet assay; assay type: cell-based, human; conditions: PC-3 cells after exposure to 4 μM β-lap
Description: DNA lesions, including total base damage, DSBs and SSBs, versus DSBs were assessed using single-cell gel electrophoretic comet assays under alkaline or neutral conditions, respectively (TREVIGEN, Gaithersburg, Md.). Slides were stained with SYBR Green and visualized using a Nikon Eclipse TE2000-E fluorescence microscope (Melville, N.Y.). Digital photomicrographs were taken and comet tail lengths quantified using NIH Image J software. Each datum point represents an average of 100 cells±SE, and data are representative of experiments performed in triplicate.

T47D/BreastCancer = test: β-lapachone lethality in NQO1 genotyped cancer cells; assay type: cell-based, human
Description: (§1) Cell lines, mostly from a 5-panel nonsmall cell lung cancer panel from the UT Southwestern SPORE, were assessed for NQO1 polymorphism status and then monitored for NQO1 enzyme assays using β-lapachone or the standard menadione substrates. Cell line responses to β-lapachone exposures (μM, 2 h) were then assessed and lethal doses causing 50% lethality with or without dicoumarol (40 μM) co-treatments were recorded. NQO1*2/*2 and *3/*3 polymorphisms were detected from NQO1 *1/*1 wild-type sequences by PCR-RFLP. Genomic DNA was extracted from the cells using Qiagen spin columns. Using previously described oligonucleotide primers, PCR products underwent gel electrophoresis. Final genotyping was determined based on the size and pattern of separated bands diagnostic for *1/*1 (wild-type), or polymorphic *2/*2 or *3/*3 NQO1 polymorphisms.

H2009/NSCLC = test: as above; assay type: cell-based, human
Description: as §1

H292 = test: as above; assay type: cell-based, human
Description: as §1

HCC366/NSCLC = test: as above; assay type: cell-based, human
Description: as §1

Calu-3/NSCLC = test: as above; assay type: cell-based, human
Description: as §1

H1648 = test: as above; assay type: cell-based, human
Description: as §1

HCC1171/NSCLC = test: as above; assay type: cell-based, human
Description: as §1

H2073 = test: as above; assay type: cell-based, human
Description: as §1

[4] = *3/*3, 2 h, + dicoumarol (40 μM)
[5] = NQO1 genotype *3/*3, 2 h exposure

CC1(C)CCC2=C(O1)c1ccccc1C(=O)C2=O [β-Lap, 3,4-dihydro-2,2-dimethyl-2H-naphtho[1,2-b]pyran-5,6-dione]
PAR formation after combined treatment (PARP-1 in PC-3 cells; 1 Gy+3 μM β-lap, PC-3 cells, at 60 mins, no apparent levels after each agent alone): dramatic PAR formation
Time to significant accumulation of PAR (PARP-1 in PC-3 cells; β-lap-exposed PC-3 cells, blocked by dicoumarol): 10 to 20 min
NQO1 activity, β-Lap (NQO1): 1940 ± 12 nmol/min/µg
Time to exhaustion of NAD+ and ATP levels (PC-3 cells [1]): ≤ 120 min
Organ/tumor concentrations [2]: elevated levels of the drug in lung
IR dose equivalent to DNA lesions by alkaline assays (PC-3 cells [3]): 20 Gy
LD50 + DIC (T47D/BreastCancer; [4]): 4 µM
β-Lap Lethality LD50 (T47D/BreastCancer; [5]): 4 µM
LD50 + DIC (H2009/NSCLC; [4]): 5.4 µM
β-Lap Lethality LD50 (H2009/NSCLC; [5]): 4.3 µM
LD50 + DIC (H292; H292, *1/*2, 2 h, + dicoumarol (40 μM)): >10 µM
β-Lap Lethality LD50 (H292; H292, NQO1 genotype *1/*2, 2 h exposure): 1.8 µM
LD50 + DIC (HCC366/NSCLC; *2/*2, 2 h, + dicoumarol (40 μM)): >10 µM
β-Lap Lethality LD50 (HCC366/NSCLC; NQO1 genotype *2/*2, 2 h exposure): >10 µM
LD50 + DIC (Calu-3/NSCLC; [4]): 3 µM
β-Lap Lethality LD50 (Calu-3/NSCLC; [5]): 2.4 µM
LD50 + DIC (H1648; H1648, *1/*1, 2 h, + dicoumarol (40 μM)): >20 µM
β-Lap Lethality LD50 (H1648; H1648, NQO1 genotype *1/*1, 2 h exposure): 4.1 µM
LD50 + DIC (HCC1171/NSCLC; [4]): 2 µM
β-Lap Lethality LD50 (HCC1171/NSCLC; [5]): 3 µM
LD50 + DIC (H2073; H2073, *1/*1, 2 h, + dicoumarol (40 μM)): >10 µM
β-Lap Lethality LD50 (H2073; H2073, NQO1 genotype *1/*1, 2 h exposure): 1.8 µM
